The target in one assay is DLK (Homo sapiens (Human), UniProt Q12852). In words: DLK biochemical assay (TR-FRET, MKK7 phosphorylation). As to the method:
DLK assay is a biochemical assay format designed to screen for inhibitors of DLK. Enzymatic activity of DLK was measured by monitoring phosphorylation of the physiological substrate MKK7 (MAP2K7, Dual specificity mitogen-activated protein kinase kinase 7). Phosphorylation was detected by a TR-FRET system whereby His-tagged MKK7 was labeled by a XL665-labeled anti-His antibody (FRET acceptor, emission 665 nm). DLK phosphorylates MKK7 at T275/S277, which was detected by an Eu-labeled anti-phospho-MKK7 (T275/S277) antibody (F RET donor, excitation 340 nm). Phosphorylation of MKK7 results in an increased TR-FRET signal (Ratio XL665-channel/Eu-channel) and inhibition of enzymatic activity of DLK decreases the TR-FRET signal.
Assay Protocol for 1536 MTP format: test compounds were predispensed (60 nl) in test plates; +3 μl DLK solution (10 nM DLK, catalytic domain, Carna Biosiences, 0.6 mM DTT in assay buffer); +2 μl substrate solution (15 nM MKK7, LDB; 60 μM ATP; 0.4 mM DTT in assay buffer); 90 min incubation at RT; +2 μl detection mix (5 nM XL665-labeled anti-His antibody, Cisbio; 0.1 nM Eu-labeled anti-phospho-MKK7 (T275/S277), Cisbio/Millipore in detection buffer); 16 h incubation at 37° C.; endpoint measurement BMG (HTRF).
Assay Protocol for 384 low volume MTP format: 1 μl of test compounds were pipetted into test plate; +5 μl DLK solution (10 nM DLK, catalytic domain, Carna Biosiences in assay buffer); +5 μl substrate solution (15 nM MKK7, LDB; 60 μM ATP, in assay buffer); 90 min incubation at RT; +9 μl detection mix (20 nM XL665-labeled anti-His antibody, Cisbio; 0.4 nM Eu-labeled anti-phospho-MKK7 (T275/S277), Cisbio/Millipore in detection buffer); 16 h incubation at 4° C.; endpoint measurement BMG (HTRF).
(§1) All indicated concentrations final concentrations.
Assay buffer (384 format): 50 mM Hepes pH 7.5, 10 mM MgCl2, 1 mM EGTA, 1 mM DTT, 0,01% Triton X-100, 0.01% BSA, 1:500 Smart Block.
(§2) Detection buffer: 25 mM Tris/HCl pH 7.5, 100 mM EDTA, 100 mM NaCl, 200 mM KF, 0.01% Tween 20, 1:500 Smart Block.
(TR-FRET usually uses a lanthanide donor and a delayed reading to cut background.)

Another assay deals with LZK (Homo sapiens (Human), UniProt O43283). In words: LZK biochemical assay (TR-FRET, MKK7 phosphorylation). As to the method:
LZK assay is a biochemical assay format designed to screen for inhibitors of LZK. Enzymatic activity of LZK was measured by monitoring phosphorylation of the physiological substrate MKK7 (MAP2K7, Dual specificity mitogen-activated protein kinase kinase 7). Phosphorylation was detected by a TR-FRET system whereby His-tagged MKK7 was labeled by a XL665-labeled anti-His antibody (FRET acceptor, emission 665 nm). LZK phosphorylates MKK7 at T275/S277 which were detected by an Eu-labeled anti-phospho-MKK7 (T275/S277) antibody (FRET donor, excitation 340 nm). Phosphorylation of MKK7 results in an increased TR-FRET signal (Ratio XL665-channel/Eu-channel) and inhibition of enzymatic activity of LZK decreases the TR-FRET signal.
Assay Protocol for 384 low volume MTP format: 1 μl of test compound was pipetted into test plate; +5 μl LZK solution (10 nM LZK, catalytic domain, Carna Biosiences in assay buffer); +5 μl substrate solution (15 nM MKK7, LDB; 15 μM ATP, in assay buffer); 90 min incubation at RT; +5 μl detection mix (20 nM XL665-labeled anti-His antibody, Cisbio; 0.4 nM Eu-labeled anti-phospho-MKK7 (T275/S277), Cisbio/Millipore in detection buffer), 16 h incubation at 32° C.; endpoint measurement BMG (HTRF).
as §1
Assay buffer (384 format): 50 mM Hepes pH 7.5, 10 mM MgCl2, 1 mM EGTA, 1 mM DTT, 0.01% Triton X-100, 0.01% BSA, 1:500 Smart Block.
as §2

DLK, sequence (Q12852 1-520): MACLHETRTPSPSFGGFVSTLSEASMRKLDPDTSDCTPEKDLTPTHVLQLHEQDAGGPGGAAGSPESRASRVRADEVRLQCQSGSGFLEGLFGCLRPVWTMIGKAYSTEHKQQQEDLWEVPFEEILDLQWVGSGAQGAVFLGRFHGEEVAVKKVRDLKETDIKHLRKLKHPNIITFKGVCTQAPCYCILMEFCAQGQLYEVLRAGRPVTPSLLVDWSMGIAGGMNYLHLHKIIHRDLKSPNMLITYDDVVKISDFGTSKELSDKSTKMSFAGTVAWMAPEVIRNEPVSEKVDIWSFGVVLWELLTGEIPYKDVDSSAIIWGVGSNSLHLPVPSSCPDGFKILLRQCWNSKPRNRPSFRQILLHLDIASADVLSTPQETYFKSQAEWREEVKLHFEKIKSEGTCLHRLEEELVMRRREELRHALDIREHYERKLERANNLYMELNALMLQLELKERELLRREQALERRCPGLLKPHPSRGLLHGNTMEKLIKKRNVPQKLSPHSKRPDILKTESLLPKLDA
LZK, sequence (O43283 168-409): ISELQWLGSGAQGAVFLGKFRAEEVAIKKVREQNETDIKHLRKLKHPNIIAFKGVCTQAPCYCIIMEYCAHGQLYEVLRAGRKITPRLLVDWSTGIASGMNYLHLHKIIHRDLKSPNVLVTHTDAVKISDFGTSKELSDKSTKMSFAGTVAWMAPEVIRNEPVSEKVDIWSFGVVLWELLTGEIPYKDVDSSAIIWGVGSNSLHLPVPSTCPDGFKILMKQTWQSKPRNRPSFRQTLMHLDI

Regarding `COc1cccc(CNC(=O)c2cc(-c3cc(C(=O)N[C@@H](C)CO)c4nc(N)nn4c3)cs2)c1` [Compound 31], the 50% inhibitory concentration (IC50) (usually the concentration needed to halve the response being measured) came out at 0.013 µM at DLK and 0.17 µM on LZK.

For the compound `CC(C)NC(=O)c1cc(-c2csc(C(=O)NCc3nc4ccccc4o3)c2)cn2nc(N)nc12` [Compound 35], the IC50 turned out to be 0.032 µM on DLK and 0.12 µM on LZK.

Consider `Nc1nc2c(C(=O)NC3CCNC3)cc(-c3csc(C(=O)NCc4ccccc4)c3)cn2n1` (stereo not drawn) [Compound 36], for which the IC50 worked out at 0.23 µM at DLK and 0.84 µM on LZK.

Consider `COc1cccc(CNC(=O)c2cc(-c3cc(C(=O)NC4CCNC4)c4nc(N)nn4c3)cs2)c1` (stereo not drawn) [Compound 37], for which the values for the IC50 at DLK and against LZK were 0.22 µM and 1.25 µM, respectively.

On to `Nc1nc2c(C(=O)NC3CNC(=O)C3)cc(-c3csc(C(=O)NCc4ccccc4)c3)cn2n1` (stereo not drawn) [Compound 38], for which the half-maximal inhibitory concentration (IC50) turned out to be 0.017 µM at DLK and 0.13 µM against LZK.

As to `C[C@@H](CO)NC(=O)c1cc(-c2csc(C(=O)NC3CCCCC3)c2)cn2nc(N)nc12` [Compound 39], the IC50 on DLK amounted to 0.0375 µM; at LZK it was 0.59 µM.

On to `C[C@@H](CO)NC(=O)c1cc(-c2csc(C(=O)NCc3nc4ccccc4o3)c2)cn2nc(N)nc12` [Compound 40], for which the IC50 against DLK is 0.039 µM; on LZK it was 0.38 µM.

On to `NC(=O)c1cc(-c2csc(C(=O)NCc3ccc(F)cc3)c2)cn2nc(N)nc12` [Compound 42], for which the IC50 was determined as 0.07 µM against DLK and 0.48 µM at LZK.

On to `C[C@H](NC(=O)c1cc(-c2cc(C(=O)NC3CC3)c3nc(N)nn3c2)cs1)c1ccccc1` [Compound 44], for which the results for the IC50 on DLK and at LZK were 0.047 µM and 1.4 µM, respectively.

In the case of `C[C@H](NC(=O)c1cc(-c2cc(C(=O)NC3CC3)c3nc(N)nn3c2)cs1)c1ccc(F)cc1` [Compound 45], the IC50 against DLK came to 0.024 µM; at LZK, 0.43 µM.

Consider `Nc1nc2c(C(=O)NC3CC3)cc(-c3csc(C(=O)NCc4ccc(F)cc4)c3)cn2n1` [Compound 46], for which the IC50 was 0.36 µM against DLK and 1.2 µM at LZK.

In the case of `Nc1nc2c(C(=O)NC3CCC3)cc(-c3csc(C(=O)NCc4ccccc4)c3)cn2n1` [Compound 52], the IC50 was found to be 0.0205 µM against DLK and 0.235 µM against LZK.

Turning to `Nc1nc2c(C(=O)NCC(F)(F)F)cc(-c3csc(C(=O)NCc4ccccc4)c3)cn2n1` [Compound 53], the 50% inhibitory concentration (IC50) on DLK turned out to be 0.28 µM; against LZK, 6.1 µM.

As for `Nc1nc2c(C(=O)NC3CC3)cc(-c3csc(C(=O)NCc4ccccc4)c3)cn2n1` [Compound 56], the IC50 at DLK stood at 0.12 µM; against LZK, 2.3 µM.

Regarding `Nc1nc2c(C(=O)NC3CCC3)cc(-c3csc(C(=O)NCc4ccc(F)cc4)c3)cn2n1` [Compound 58], the results for the IC50 at DLK and against LZK were 0.0295 µM and 0.33 µM, respectively.

For `C[C@H](NC(=O)c1cc(-c2cc(C(=O)NC3CCC3)c3nc(N)nn3c2)cs1)c1ccccc1` [Compound 59], the IC50 against DLK amounted to 0.00435 µM; at LZK, 0.255 µM.

As to `C[C@H](NC(=O)c1cc(-c2cc(C(=O)NC3CCC3)c3nc(N)nn3c2)cs1)c1ccc(F)cc1` [Compound 60], the IC50 against DLK is 0.00525 µM; at LZK, 0.295 µM.

As for `Nc1nc2c(C(=O)NCC(F)(F)F)cc(-c3csc(C(=O)NCc4ccc(F)cc4)c3)cn2n1` [Compound 61], the IC50 was 0.57 µM at DLK and 3.7 µM at LZK.

As to `C[C@H](NC(=O)c1cc(-c2cc(C(=O)NCC(F)(F)F)c3nc(N)nn3c2)cs1)c1ccccc1` [Compound 62], the IC50 at DLK was found to be 0.12 µM; on LZK, 10 µM.

As for `C[C@H](NC(=O)c1cc(-c2cc(C(=O)NCC(F)(F)F)c3nc(N)nn3c2)cs1)c1ccc(F)cc1` [Compound 63], the half-maximal inhibitory concentration (IC50) on DLK came to 0.12 µM; on LZK it was 4.6 µM.

As to `Nc1nc2c(C(=O)NC3COC3)cc(-c3csc(C(=O)NCc4ccccc4)c3)cn2n1` [Compound 64], the results for the IC50 at DLK and on LZK were 0.2 µM and 7 µM, respectively.

`C[C@H](NC(=O)c1cc(-c2cc(C(=O)NC3COC3)c3nc(N)nn3c2)cs1)c1ccccc1` [Compound 65]: the IC50 against DLK amounted to 0.1 µM; against LZK it was 19 µM.

With `COC[C@H](C)NC(=O)c1cc(-c2csc(C(=O)NCc3ccccc3)c2)cn2nc(N)nc12` [Compound 67], the IC50 on DLK stood at 0.2 µM; at LZK, 1.7 µM.

For `COC[C@H](C)NC(=O)c1cc(-c2csc(C(=O)NCc3ccc(F)cc3)c2)cn2nc(N)nc12` [Compound 68], the 50% inhibitory concentration (IC50) against DLK was 0.3 µM; at LZK, 1.6 µM.

`COC[C@H](C)NC(=O)c1cc(-c2csc(C(=O)N[C@@H](C)c3ccc(F)cc3)c2)cn2nc(N)nc12` [Compound 69]: the IC50 turned out to be 0.06 µM against DLK and 1.1 µM on LZK.

Regarding `COC[C@H](C)NC(=O)c1cc(-c2csc(C(=O)N[C@@H](C)c3ccccc3)c2)cn2nc(N)nc12` [Compound 70], the values for the IC50 against DLK and at LZK were 0.076 µM and 1.4 µM, respectively.

In the case of `Nc1nc2c(C(=O)NC3COC3)cc(-c3csc(C(=O)NCc4ccc(F)cc4)c3)cn2n1` [Compound 74], the IC50 is 0.32 µM against DLK and 5.6 µM at LZK.

Turning to `CC[C@H](NC(=O)c1cc(-c2cc(C(=O)NC3COC3)c3nc(N)nn3c2)cs1)c1ccccc1` [Compound 75], the IC50 turned out to be 0.067 µM at DLK and 4.2 µM against LZK.

As for `CC[C@H](NC(=O)c1cc(-c2cc(C(=O)NC(C)C)c3nc(N)nn3c2)cs1)c1ccccc1` [Compound 76], the IC50 on DLK stood at 0.00515 µM; at LZK, 0.087 µM.

On to `CC[C@H](NC(=O)c1cc(-c2cc(C(=O)N[C@@H](C)CO)c3nc(N)nn3c2)cs1)c1ccccc1` [Compound 77], for which the IC50 on DLK stood at 0.0018 µM; on LZK it was 0.036 µM.

On to `C[C@H](NC(=O)c1cc(-c2cc(C(=O)NC(C)(C)CO)c3nc(N)nn3c2)cs1)c1ccccc1` [Compound 79], for which the IC50 at DLK amounted to 0.0115 µM; at LZK it was 0.21 µM.

For the compound `CC(C)(CO)NC(=O)c1cc(-c2csc(C(=O)NCc3ccc(F)cc3)c2)cn2nc(N)nc12` [Compound 80], the IC50 on DLK is 0.0565 µM; against LZK, 0.13 µM.

`CC[C@H](NC(=O)c1cc(-c2cc(C(=O)N[C@@H](C)COC)c3nc(N)nn3c2)cs1)c1ccccc1` [Compound 81]: the figures for the IC50 at DLK and against LZK were 0.01 µM and 0.14 µM, respectively.

In the case of `CCNC(=O)c1cc(-c2csc(C(=O)N[C@@H](CC)c3ccccc3)c2)cn2nc(N)nc12` [Compound 82], the IC50 came to 0.0125 µM at DLK and 0.455 µM at LZK.

In the case of `CC(C)NC(=O)c1cc(-c2csc(C(=O)N[C@@H](C)c3ccc(C(F)(F)F)cc3)c2)cn2nc(N)nc12` [Compound 83], the figures for the IC50 on DLK and on LZK were 0.073 µM and 4.2 µM, respectively.

Regarding `CC[C@H](NC(=O)c1cc(-c2cc(C(=O)NC(C)(C)C)c3nc(N)nn3c2)cs1)c1ccccc1` [Compound 84], the IC50 against DLK amounted to 0.019 µM; on LZK, 0.34 µM.

On to `CC(C)NC(=O)c1cc(-c2csc(C(N)=O)c2)cn2nc(N)nc12` [Compound 85], for which the figures for the IC50 at DLK and against LZK were 0.36 µM and 0.9 µM, respectively.

Regarding `C[C@@H](CO)NC(=O)c1cc(-c2csc(C(N)=O)c2)cn2nc(N)nc12` [Compound 86], the figures for the half-inhibitory concentration (IC50) against DLK and against LZK were 0.36 µM and 1.1 µM, respectively.

Consider `CC[C@H](C)NC(=O)c1cc(-c2csc(C(=O)NCc3ccccc3)c2)cn2nc(N)nc12` [Compound 87], for which the IC50 came to 0.011 µM against DLK and 0.048 µM against LZK.

For the origin of these results see patent publication US20230382904A1, “SUBSTITUTED 4-([1,2,4]TRIAZOLO[1,5-a]PYRIDIN-6-YL)THIOPHENE-2-CARBOXAMIDE DERIVATIVES AND USE THEREOF” (The Johns Hopkins University, priority 2020, published 2023).
